Several values for one entry are separate records, joined by “and”; a condition that tells them apart may be missing. Equal entries are not always repeated. Toxic doses and inconclusive results are not listed. Rule for the calls: active = survival T/C of 150% or more; inactive = T/C below 125% in these data.
Tested on: P388 leukemia ip, CD2F1 mice, survival T/C
Experiment: NCI In Vivo Anticancer Drug Screen. Data for tumor model P388 Leukemia (intraperitoneal) in CD2F1 (CDF1) mice
Conditions: endpoint: median survival time, higher = longer survival
Method in brief: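 Mice carrying the transplanted tumor received test compound or vehicle. Survival was recorded in each group, and the value is the treated-group measurement divided by that of the vehicle-treated control group.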

[1] = dose: 50.0 mg/kg/injection, schedule: Q01DX009 (ip), vehicle: saline
[2] = dose: 100.0 mg/kg/injection, schedule: Q01DX009 (ip), vehicle: saline

Measured: T/C

NC(=O)c1[nH]nc(C2OC(CO)C(O)C2O)c1O (stereo not drawn)
inactive: dose: 0.31 mg/kg/injection, schedule: Q01DX009 (ip), vehicle: saline 109 % of control | dose: 0.62 mg/kg/injection, schedule: Q01DX009 (ip), vehicle: saline 122 % of control | dose: 0.67 mg/kg/injection, schedule: Q01DX009 (ip), vehicle: saline 124 % of control | dose: 1.0 mg/kg/injection, schedule: Q04DX003 (ip), vehicle: saline 108 % of control | dose: 2.0 mg/kg/injection, schedule: Q04DX003 (ip), vehicle: saline 113 % of control | dose: 3.0 mg/kg/injection, schedule: Q01DX009 (ip), vehicle: saline 107 % of control | dose: 3.0 mg/kg/injection, schedule: Q04DX003 (ip), vehicle: saline 113 % of control | dose: 4.0 mg/kg/injection, schedule: Q04DX003 (ip), vehicle: saline 120 % of control | dose: 4.4 mg/kg/injection, schedule: Q04DX003 (ip), vehicle: saline 115 % of control | dose: 6.7 mg/kg/injection, schedule: Q04DX003 (ip), vehicle: saline 115 % of control | dose: 8.0 mg/kg/injection, schedule: Q04DX003 (ip), vehicle: saline 111 % of control | dose: 9.0 mg/kg/injection, schedule: Q04DX003 (ip), vehicle: saline 123 % of control | dose: 10.0 mg/kg/injection, schedule: Q04DX003 (ip), vehicle: saline sonified 116 % of control | dose: 10.0 mg/kg/injection, schedule: Q04DX003 (ip), vehicle: saline 106 % of control | dose: 16.0 mg/kg/injection, schedule: Q04DX003 (ip), vehicle: saline 111 % of control | dose: 27.0 mg/kg/injection, schedule: Q04DX003 (ip), vehicle: saline 117 % of control | dose: 32.0 mg/kg/injection, schedule: Q04DX003 (ip), vehicle: saline 104 % of control

COC(=O)c1cc(-c2ccccc2)[nH]c1-c1ccccc1
inactive: dose: 12.5 mg/kg/injection, schedule: Q01DX009 (ip), vehicle: saline 105 % of control | dose: 25.0 mg/kg/injection, schedule: Q01DX009 (ip), vehicle: saline 104 % of control | [1] 102 % of control

CCN1CCc2cccc3c2C1c1ccccc1CC3 (stereo not drawn)
inactive: dose: 50.0 mg/kg/injection, schedule: Q01DX001 (ip), vehicle: saline with Tween-80 100 % of control | dose: 100.0 mg/kg/injection, schedule: Q01DX001 (ip), vehicle: saline with Tween-80 101 % of control

COc1cc2c(c(OC)c1OC)-c1c(cc3c(c1OC)OCO3)C1OC2C(C)C1C (stereo not drawn) (tested in a mixture with another compound)
inactive: dose: 25.0 mg/kg/injection, schedule: Q01DX005 (ip), vehicle: Klucel (hydroxypropylcellulose) (HPC) 100 % of control | dose: 50.0 mg/kg/injection, schedule: Q01DX005 (ip), vehicle: Klucel (hydroxypropylcellulose) (HPC) 97 % of control | dose: 100.0 mg/kg/injection, schedule: Q01DX005 (ip), vehicle: Klucel (hydroxypropylcellulose) (HPC) 100 % of control and 101 % of control | dose: 200.0 mg/kg/injection, schedule: Q01DX005 (ip), vehicle: Klucel (hydroxypropylcellulose) (HPC) 103 % of control and 106 % of control | dose: 400.0 mg/kg/injection, schedule: Q01DX005 (ip), vehicle: Klucel (hydroxypropylcellulose) (HPC) 99 % of control

O=C(N/N=C/c1cc(Cl)cc(Cl)c1[O-])c1ccccc1.O=C(N/N=C/c1cc(Cl)cc(Cl)c1[O-])c1ccccc1.[Fe+2]
inactive: dose: 100.0 mg/kg/injection, schedule: Q04DX002 (ip), vehicle: saline with Tween-80 98 % of control | dose: 200.0 mg/kg/injection, schedule: Q04DX002 (ip), vehicle: saline with Tween-80 103 % of control | dose: 400.0 mg/kg/injection, schedule: Q04DX002 (ip), vehicle: saline with Tween-80 100 % of control

O=C(O)CC(O)(CC(=O)O)C(=O)O
inactive: dose: 0.12 % in 0.5 ml injection vol, schedule: Q01DX009 (ip), vehicle: water 100 % of control | dose: 0.25 % in 0.5 ml injection vol, schedule: Q01DX009 (ip), vehicle: water 99 % of control and 94 % of control | dose: 0.5 % in 0.5 ml injection vol, schedule: Q01DX009 (ip), vehicle: water 88 % of control and 90 % of control and 94 % of control

CCN(CC)CCNc1cc2ccccc2c2sc3ccccc3c(=O)c12
inactive: dose: 25.0 mg/kg/injection, schedule: Q01DX005 (ip), vehicle: distilled water + Tween-80 102 % of control | dose: 50.0 mg/kg/injection, schedule: Q01DX005 (ip), vehicle: distilled water + Tween-80 103 % of control

CCc1nn(CCCN2CCN(c3cccc(Cl)c3)CC2)c(=O)n1CC
inactive: [1] 114 % of control | [2] 116 % of control

[Se]=P(c1ccccc1)(N1CCCCC1)N1CCCCC1
inactive: dose: 12.5 mg/kg/injection, schedule: Q01DX001 (ip), vehicle: Klucel (hydroxypropylcellulose) (HPC) 106 % of control | dose: 25.0 mg/kg/injection, schedule: Q01DX001 (ip), vehicle: Klucel (hydroxypropylcellulose) (HPC) 101 % of control | dose: 50.0 mg/kg/injection, schedule: Q01DX001 (ip), vehicle: Klucel (hydroxypropylcellulose) (HPC) 93 % of control

c1ccc2c(c1)CCCN2c1nc(N2CCCC2)nc(N2CCOCC2)n1
inactive: [1] 99 % of control | [2] 89 % of control | dose: 200.0 mg/kg/injection, schedule: Q01DX009 (ip), vehicle: saline 92 % of control

From PubChem BioAssay AID330 (DTP/NCI, 2004)
